Measurements as given in patent US20190328016A1, “SALT COMPOSITION INCLUDING SARCOSINE” (NESTEC S.A., priority 2016, published 2019).

System: trained panellists
Assay: Sensory evaluation of tablets by 11 trained panellists
Type: in vivo
Protocol: Bars coloured black denote a significant difference in a particular taste/sensory characteristic. Unshaded bars denote that there is no significant difference in the characteristic. A positive number represents an increased sensory response of the co-crystal compared to the physical mixture.
Tablets for sensory evaluation were prepared using a Romaco Kilian Styl'One single-stroke tablet press. […] The tablets were prepared with three compressions of 300 ms and an interval of 200 ms.
Each of the panellists received a tray with two tablets presented on plastic plates coded with random 3-digit numbers. The tablets had to be crunched with the front teeth and kept in mouth to dissolve slowly (method 1). Alternatively, tablets could be crunched with the front teeth and chewed constantly in the mouth until complete dissolution occurred (method 2).
Afterwards the panellists were asked to rate the taste of the tablets in respect of the following 12 categories: upfront saltiness (1), overall saltiness (2), sweetness (3), sourness (4), umami (5), friable (6), melting (7), overall persistence (8), saltiness persistence (9), sweetness persistence (10), sourness persistence (11), and tingling (12).

N[C@@H](CO)C(=O)O.N[C@@H](CO)C(=O)O.[Cl-].[Na+] [(L-serine)2.sodium chloride co-crystals, (L-serine)2.sodium chloride]
perceived salty taste versus corresponding physical mix (25 mg sodium chloride per tablet, during and after consumption): significantly more salty
overall saltiness versus physical mix (11 trained panellists, FIG. 2): superior
saltiness persistence versus physical mix (11 trained panellists, FIG. 2): superior
upfront saltiness versus physical mix (11 trained panellists, FIG. 2): superior
